In patent publication US20230242494A1, “MALONITRILE DERIVATIVES” (Hoffmann-La Roche Inc., priority 2020, published 2023):

biological target: T1, human cGAS (residues 161-522) (Homo sapiens, UniProt Q8N884); assay: cGAS Activity Assay—Malachite Green; format: biochemical; details: recombinant purified human cGAS 25 nM; 80 μM ATP, 80 μM GTP, 100 nM ISD; 4 hour at RT; phosphate detection by Malachite Green
T1 construct: human cGAS (residues 161-522); made in house
Description: Compounds were tested for cGAS inhibition in a coupled enzymatic assay based on Phosphate detection by Malachite Green. Final assay conditions were 20 mM TRIS pH 7.5 (Applichem), 5 mM MgCl2 (Sigma) and 0.01% BSA (Sigma) supplemented with 80 μM ATP (Sigma), 80 μM GTP (Sigma) and 100 nM Interferon Stimulating DNA (ISD) (Microsynth). Recombinantly expressed purified human cGAS (residues 161-522) was used at 25 nM.
All compounds were prepared as 10 mM stock solutions in DMSO and a 16 pt dilution series in DMSO with a dilution factor of 2.5 was prepared. 1 μL of DMSO dilution series was transferred to 32.3 μL reaction buffer, mixed by pipetting up/down, spun for 1 minute at 3000 rpm and was visually inspected for precipitation. 5 μL of 3-fold enzyme stock solution were transferred to an empty 384-well Black/Clear Flat Bottom Polystyrene NBS (Corning) rows 3-24. Rows 1-2 were filled with assay buffer. Plates were spun 10 seconds at 1000 rpm (164×g). 5 μL of compound intermediate dilution was added and mixed by pipetting up/down to rows 3-24. Rows 1-2 were filled with 3.1% DMSO assay buffer. Plates were spun 10 seconds at 1000 rpm (164×g). 5 μL 3-fold Nucleotide/DNA mix was added to all wells to start the reaction. Plates were spun 10 seconds at 1000 rpm (164×g) and incubated for 4 hour at room temperature (RT) in the dark. 5 μL 4 U/ml PPase (Sigma) were added to all wells. Plates spun 10 seconds at 1000 rpm (164×g). 10 μL BioMol green Solution (Enzo Life Sciences) was added to all wells. Plates spun 10 seconds at 1000 rpm (164×g) and incubated 30 minutes at RT in the dark. Absorbance data was collected 620 nm on an EnVision Multilable Reader (Perkin Elmer) and the following measurement settings were used: excitation filter photometric was 620 nm; excitation from the top; measurement height was 1 mm; number of flashes was 30; number of flashes integrated was 1.
All plates are checked for abnormalities and outliers in the Blank Control (no protein, row 1) and the Neutral Control (no compound, row 2) are excluded using the 3*SD rule. Data was normalized to 0 and 100% by Blank and Neutral Control and each curve was fitted and judged using the 4 parameter logistic equation to determine the IC50 for cGAS inhibition.
Table 13 provides IC50 values (μM) for cGAS inhibition obtained for particular examples of the present invention as measured by the above-described assay.

T1 sequence (Q8N884 161-522): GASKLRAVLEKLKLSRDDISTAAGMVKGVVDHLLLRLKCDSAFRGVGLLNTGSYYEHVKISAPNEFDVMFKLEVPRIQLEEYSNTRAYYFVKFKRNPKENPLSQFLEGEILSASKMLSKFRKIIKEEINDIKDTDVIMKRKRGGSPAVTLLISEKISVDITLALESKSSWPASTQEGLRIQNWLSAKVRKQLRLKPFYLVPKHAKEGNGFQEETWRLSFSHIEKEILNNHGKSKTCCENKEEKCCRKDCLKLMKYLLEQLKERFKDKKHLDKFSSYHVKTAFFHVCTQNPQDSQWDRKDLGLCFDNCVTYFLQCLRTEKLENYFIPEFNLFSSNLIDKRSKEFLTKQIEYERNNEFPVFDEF

IC50	Structure (SMILES)
420 nM	Cc1oncc1/C(O)=C(\C#N)C(=O)Nc1ccc(C(=O)Nc2ccccc2)cc1 [Example 67, (Z)-4-(2-cyano-3-hydroxy-3-(5-methylisoxazol-4-yl)acrylamido)-N-phenylbenzamide]
210 nM	Cc1oncc1/C(O)=C(\C#N)C(=O)Nc1nccc(-c2ccccc2)n1 [Example 68, (Z)-2-cyano-3-hydroxy-3-(5-methylisoxazol-4-yl)-N-(4-phenylpyrimidin-2-yl)acrylamide]
2000 nM	Cc1oncc1/C(O)=C(\C#N)C(=O)Nc1cccc(C(=O)Nc2ccccc2)c1 [Example 69, (Z)-3-(2-cyano-3-hydroxy-3-(5-methylisoxazol-4-yl)acrylamido)-N-phenylbenzamide]
1000 nM	Cc1oncc1/C(O)=C(\C#N)C(=O)Nc1ccc(C(=O)N[C@H]2CCN(Cc3ccccc3)C2)cc1 [Example 70, (S,Z)-N-(1-benzylpyrrolidin-3-yl)-4-(2-cyano-3-hydroxy-3-(5-methylisoxazol-4-yl)acrylamido)benzamide]
1340 nM	Cc1oncc1/C(O)=C(\C#N)C(=O)Nc1cccc(NC(=O)c2ccccc2)c1 [Example 71, (Z)-N-(3-(2-cyano-3-hydroxy-3-(5-methylisoxazol-4-yl)acrylamido)phenyl) benzamide]
680 nM	Cc1oncc1/C(O)=C(\C#N)C(=O)Nc1ccc(C(=O)NCc2ccccc2)cc1 [Example 72, (Z)-N-benzyl-4-(2-cyano-3-hydroxy-3-(5-methylisoxazol-4-yl)acrylamido)benzamide]
140 nM	Cc1oncc1/C(O)=C(\C#N)C(=O)Nc1ncc(OC2CCCCC2)cn1 [Example 73, (Z)-2-cyano-N-(5-(cyclohexyloxy)pyrimidin-2-yl)-3-hydroxy-3-(5-methylisoxazol-4-yl)acrylamide]
1500 nM	Cc1oncc1/C(O)=C(\C#N)C(=O)Nc1ccc(Cc2ccccc2)cc1 [Example 74, (Z)-N-(4-benzylphenyl)-2-cyano-3-hydroxy-3-(5-methylisoxazol-4-yl)acrylamide]
1900 nM	Cc1cc(NC(=O)/C(C#N)=C(\O)c2cnoc2C)ccc1C(F)(F)F [Example 75, (Z)-2-cyano-3-hydroxy-N-(3-methyl-4-(trifluoromethyl)phenyl)-3-(5-methylisoxazol-4-yl)acrylamide]
4460 nM	COc1cc(NC(=O)/C(C#N)=C(\O)c2cnoc2C)ccc1C(F)(F)F [Example 76, (Z)-2-cyano-3-hydroxy-N-(3-methoxy-4-(trifluoromethyl)phenyl)-3-(5-methylisoxazol-4-yl)acrylamide]
2520 nM	Cc1oncc1/C(O)=C(\C#N)C(=O)Nc1ccc(C(=O)N(C)CC2CCCCC2)c(Cl)c1 [Example 77, (Z)-2-chloro-4-(2-cyano-3-hydroxy-3-(5-methylisoxazol-4-yl)acrylamido)-N-(cyclohexylmethyl)-N-methylbenzamide]
1640 nM	Cc1oncc1/C(O)=C(\C#N)C(=O)Nc1ccc(C(F)(F)F)c(C#N)c1 [Example 78, (Z)-2-cyano-N-(3-cyano-4-(trifluoromethyl)phenyl)-3-hydroxy-3-(5-methylisoxazol-4-yl)acrylamide]
190 nM	Cc1oncc1/C(O)=C(\C#N)C(=O)Nc1ncc(C2CCCCC2)cn1 [Example 79, (Z)-2-cyano-N-(5-cyclohexylpyrimidin-2-yl)-3-hydroxy-3-(5-methylisoxazol-4-yl)acrylamide]
610 nM	COc1ccc(-c2cnc(NC(=O)/C(C#N)=C(\O)c3cnoc3C)nc2)cc1 [Example 80, (Z)-2-cyano-3-hydroxy-N-(5-(4-methoxyphenyl)pyrimidin-2-yl)-3-(5-methylisoxazol-4-yl)acrylamide]
670 nM	Cc1oncc1/C(O)=C(\C#N)C(=O)Nc1ncc(-c2ccccc2)cn1 [Example 81, (Z)-2-cyano-3-hydroxy-3-(5-methylisoxazol-4-yl)-N-(5-phenylpyrimidin-2-yl)acrylamide]
300 nM	Cc1oncc1/C(O)=C(\C#N)C(=O)Nc1ncc(Oc2ccccc2)cn1 [Example 82, (Z)-2-cyano-3-hydroxy-3-(5-methylisoxazol-4-yl)-N-(5-phenoxypyrimidin-2-yl)acrylamide]
